Article PMC9740939, “A Network-Pharmacology-Combined Integrated Pharmacokinetic Strategy to Investigate the Mechanism of Potential Liver Injury due to Polygonum multiflorum” (Molecules, 2022)
Read-outs that look alike come from different tables or passages of the source.

How the values were obtained:
[1] = Integrated pharmacokinetics by AUC-based weighting approach; assay type: in vivo, Sprague–Dawley (SD) rats; conditions: Wj = AUCj0–∞ / sum of AUC0–∞; rats, oral PM 18 g/kg
Protocol: (§1) Blood samples were collected from the fundus into heparinized 1.5 mL polythene tubes at 5, 15, and 30 min and 1, 2, 4, 8, 12, and 24 h after oral administration of PM (18 g/kg). The blood samples were immediately centrifuged at 3500 rpm for 10 min to obtain plasma. Next, the plasma obtained was prepared for HPLC-QQQ-MS analysis, as described before. The TSG, EG, PG, AE, and EM concentrations in plasma versus time data for each rat were analyzed using Drug and Statistics Software (DAS version 3.2.8, Beijing University of Traditional Chinese Medicine, Beijing, China).
As mentioned before, the concentration–time curve (AUC0–∞) of each constituent was obtained using DAS, and then the integrated concentration was obtain using the following equations [46]: The weighting coefficient for each component was calculated using Equations (1) and (2). The integrated concentrations were then calculated by Equation (3). (1) Wj=AUCj0−∞/∑13AUC0−∞ (2) ∑13AUC0−∞=AUC0−∞1+AUC0−∞2+AUC0−∞3 (3) cT=W1×c1+W2×c2+W3×c3 where ω represents the weighting coefficient, “j” represents the three constituents studied, C1–C3 represent the plasma concentration of the three index components studied, and CT represents the integrated plasma concentration.

[2] = Stability of analytes in rat plasma (QC samples, storage and freeze–thaw); assay type: in vitro ADME; conditions: for Stability in rat plasma (in words): 4 °C for 48 h, −80 °C for 10 days, three freeze–thaw cycles; for Stability Re (%), 4 °C, 48 h / Stability Re (%), −80 °C, 10 Days / Stability Re (%), Three Freeze–Thaw Cycles: rat plasma, n = 6; for Stability Re (%), Three Freeze–Thaw Cycles: −80 °C to 25 °C
Protocol: Samples for bioanalytical method validation were prepared by spiking 100 μL of blank rat plasma and 100 μL of IS solution in bulk with different standard solutions to obtain appropriate concentrations for serial standard working solutions with the matrix and QC samples (TSG, PG, AE, and EM: 0.50 ng/mL (lower limit of quantitation, LLOQ), 10.0 ng/mL (low quality control, LQC), 200 ng/mL (medium quality control, MQC), and 640 ng/mL (high quality control, HQC); EG: 0.125 ng/mL (LLOQ), 2.50 ng/mL (LQC), 50.0 ng/mL (MQC), and 160 ng/mL (HQC)). All the stock solutions, working solutions, and samples were stored at −80 °C pending use.
Stability experiments were performed to evaluate the stability of the analytes in rat plasma at the LQC, MQC, and HQC under different time and temperature conditions. These included short-term stability (4 °C for 48 h), long-term stability (−80 °C for 10 days), and stability over three freeze–thaw cycles (−80 °C to 25 °C) by analyzing QC samples.

[3] = Pharmacokinetic study in rats after oral administration of PM extract (HPLC-QQQ-MS of plasma); assay type: in vivo, Sprague–Dawley (SD) rats; conditions: oral PM 18 g/kg; for half-life: n = 6, read-out: T1/2z (converted); for MRT last: read-out: MRT0–t; for MRT inf: read-out: MRT0–∞; for Vd/F: read-out: Vz/F
Protocol: Adult male Sprague–Dawley (SD) rats weighing between 180 g and 220 g were purchased from Beijing Vital River Laboratory Animal Technology Co., Ltd. (Beijing, China). The rats were kept in an animal center with air-conditioning and with a natural light–dark cycle (22 ± 1 °C and 40–50% humidity) with ad libitum access to standard food and water for a week before the experiment. All the animal procedures were in accordance with the Regulations of Experimental Animal Administration issued by the State Committee of Science and Technology of the People’s Republic of China. All the SD rats were fasted for 12 h prior to the experiment but with free access to water.
The assay was performed with an Agilent 1260 high-performance liquid chromatography system combined with Agilent 6470 QQQ MS (Agilent Technologies, CA, USA). Applied Masshunter Qualitative Analysis software (version B.07.00) and Quantitative Analysis software (version 07.00) were used for data acquisition and quantification. Analytes separation was achieved on a reversed-phase C18 column (Agilent Poroshell 120 EC-C18, 3.0 × 50 mm, 2.7 μm), which was protected by a guard column (Agilent EC-C18 3.0 × 5.0 mm, 2.7 μm). A gradient elution program composed of water (A) and acetonitrile (B) with gradient elution was used as follows: 0–1 min, 5% B; 1–3 min, 5–45% B; 3–7 min, 45–60% B; and 7–9 min, 60–95% B. The oven temperature was maintained at 40 °C. The flow rate was set at 0.6 mL/min (with a split ratio of 1:1.8), and the injection volume was 4 μL.
Agilent QQQ MS equipped with an electrospray ionization (ESI) source was used for mass spectrometric detection. MRM mode (negative) was used for performing the quantification of TSG, EG, PG, AE, and EM. The other MS conditions were set as follows: gas temperature, 300 °C, gas flow, 8 L/min; nebulizer, 55 psi; and sheath gas flow, 11 L/min.
A simple pretreatment method for protein precipitation was carried out to clean up the plasma samples prior to LC-MS/MS analysis. The plasma sample was thawed to room temperature. An aliquot of pre-cooled 800 μL of acetonitrile and 100 μL of IS solution (100 ng/mL) was added to a 300 μL plasma sample in a centrifuge tube. The tubes were vortexed for 10 min and spun in a centrifuge at 12,000 rpm for 15 min at 4 °C. The supernatant was transferred into a separate tube and dried using a vacuum concentrator, and the samples were re-dissolved with 100 μL of pure methanol. Next, the tube was vortexed for 10 min and spun in a centrifuge at 12,000 rpm for 15 min at 4 °C again. The supernatant was then injected into the HPLC-QQQ-MS instrument for analysis.
as §1

[4] = HQC: spiked 640 ng/mL (EG 160 ng/mL)
[5] = LQC: spiked 10.0 ng/mL (EG 2.50 ng/mL)
[6] = MQC: spiked 200 ng/mL (EG 50.0 ng/mL)
[7] = male, Sprague-Dawley, rat, plasma, po, 18 g/kg
[8] = male, Sprague-Dawley, rat plasma, n = 6
[9] = male, Sprague-Dawley, rat plasma, n = 6, read-out: Tmax
[10] = male, Sprague-Dawley, rat, plasma, po, 18 g/kg, n = 6

AUC(0-inf) [3, 8]	MRT inf [3, 8]	Tmax [3, 9]	SMILES	Weighting coefficient (AUC0–∞ share) [1]	Stability in rat plasma (in words) [2]	Stability Re (%), 4 °C, 48 h [2, 4]	Stability Re (%), −80 °C, 10 Days [2, 4]	Stability Re (%), Three Freeze–Thaw Cycles [2, 4]	Stability Re (%), 4 °C, 48 h [2, 5]	Stability Re (%), −80 °C, 10 Days [2, 5]	Stability Re (%), Three Freeze–Thaw Cycles [2, 5]	Stability Re (%), 4 °C, 48 h [2, 6]	Stability Re (%), −80 °C, 10 Days [2, 6]	Stability Re (%), Three Freeze–Thaw Cycles [2, 6]	half-life [3, 7]	AUC(0-t) [3, 8]	Cmax [3, 8]	MRT last [3, 8]	Vd/F [3, 8]	CLz/F ([3]; rat plasma, n = 6)	also measured
758 ± 58.6 ng·h/mL	1.23 ± 0.203 h	0.25 h	OCC1OC(Oc2c(O)cc(O)cc2C=Cc2ccc(O)cc2)C(O)C(O)C1O [TSG, trans-2,3,5,4′-tetrahydroxystilbene-2-O-β-D-glucoside]	30.19%	stable	97.86%	92.72%	99.01%	100.1%	97.92%	91.38%	92.13%	95.95%	95.27%	2.22 ± 1.34 h	758 ± 58.9 ng·h/mL	728 ± 104 ng/mL	1.22 ± 0.182 h	2000 ± 1270 L/kg	10300 ± 769 mL/min/kg	–
–	–	–	Cc1cc(O)c2c(c1)C(=O)c1cc(O)cc(O)c1C2=O [EM, emodin]	–	stable	85.19%	111.7%	99.10%	86.36%	97.48%	96.37%	92.05%	99.40%	98.71%	11.1 ± 5.22 h	1020 ± 142 ng·h/mL	388 ± 32.1 ng/mL	6.82 ± 0.545 h	152 ± 51.5 L/kg	171 ± 42.3 mL/min/kg	AUC(0-inf) [3, 10]: 1020 ± 300 ng·h/mL; AUC0–∞ ([3]; rat plasma, n = 6): 1041 ± 300.2 ng·h/mL; MRT0–∞ ([3]; rat plasma, n = 6): 12.71 ± 5.092 h; T1/2z ([3]; rat plasma, n = 6): 11.1 ± 5.22 h
205 ± 95.6 ng·h/mL	17.6 ± 13.9 h	0.25 h	COc1cc(O)c2c(c1)C(=O)c1cc(C)cc(OC3OC(CO)C(O)C(O)C3O)c1C2=O [PG, physcion-8-O-β-D-glucoside]	–	stable	92.41%	96.88%	98.03%	98.55%	90.14%	88.21%	90.36%	94.69%	94.08%	12.3 ± 10.1 h	146 ± 19.4 ng·h/mL	20 ± 2.69 ng/mL	8.41 ± 1.01 h	242 ± 71.8 L/kg	290 ± 103 mL/min/kg	T1/2z ([3]; rat plasma, n = 6): 12.3 ± 10.1 h

SMILES	AUC(0-inf) [3, 8]	MRT inf [3, 8]	Tmax [3, 9]	Weighting coefficient (AUC0–∞ share) [1]	Stability in rat plasma (in words) [2]	Stability Re (%), 4 °C, 48 h [2, 4]	Stability Re (%), −80 °C, 10 Days [2, 4]	Stability Re (%), Three Freeze–Thaw Cycles [2, 4]	Stability Re (%), 4 °C, 48 h [2, 5]	Stability Re (%), −80 °C, 10 Days [2, 5]	Stability Re (%), Three Freeze–Thaw Cycles [2, 5]	Stability Re (%), 4 °C, 48 h [2, 6]	Stability Re (%), −80 °C, 10 Days [2, 6]	Stability Re (%), Three Freeze–Thaw Cycles [2, 6]	half-life [3, 7]	AUC(0-t) [3, 8]	Cmax [3, 8]	MRT last [3, 8]	Vd/F [3, 8]	CLz/F ([3]; rat plasma, n = 6)	also measured
O=C1c2cccc(O)c2C(=O)c2c(O)cc(CO)cc21 [AE, aloe-emodin]	–	8.57 ± 3.02 h	–	2.799%	stable	90.21%	100.1%	96.94%	94.77%	90.27%	90.50%	97.05%	89.62%	91.44%	6.42 ± 2.17 h	64.5 ± 9.4 ng·h/mL	17.9 ± 2.94 ng/mL	6.5 ± 1.42 h	407 ± 113 L/kg	756 ± 131 mL/min/kg	AUC(0-inf) [3, 10]: 70.3 ± 13.8 ng·h/mL; Tmax ([3]; rat plasma, n = 6): 0.25 ± 0.00 h
